Measured values published in PubChem BioAssay AID248 (DTP/NCI, 2004).
Several values for one entry are separate records, joined by “and”; a condition that tells them apart may be missing. Identical values can stand only once. Toxic doses and inconclusive results are not listed.

Test system: L1210 leukemia ip in BDF1 mice, survival T/C
Experiment: NCI In Vivo Anticancer Drug Screen. Data for tumor model L1210 Leukemia (intraperitoneal) in B6D2F1 (BDF1) mice
Conditions: endpoint: mean survival time, higher = longer survival
Outline: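 Antitumor effect is assessed in tumor-bearing animals. Survival in the compound arm is compared with a vehicle-dosed control arm and expressed as their quotient.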

[1] = dose: 100.0 mg/kg/injection, schedule: Q01DX001 (ip), vehicle: saline
[2] = dose: 200.0 mg/kg/injection, schedule: Q01DX001 (ip), vehicle: saline
[3] = dose: 100.0 mg/kg/injection, schedule: Q01DX009 (ip), vehicle: saline with Tween-80
[4] = dose: 100.0 mg/kg/injection, schedule: Q04DX003 (ip), vehicle: saline with Tween-80
[5] = dose: 200.0 mg/kg/injection, schedule: Q04DX003 (ip), vehicle: saline with Tween-80
[6] = dose: 100.0 mg/kg/injection, schedule: Q04DX003 (ip), vehicle: saline
[7] = dose: 200.0 mg/kg/injection, schedule: Q04DX003 (ip), vehicle: saline
[8] = dose: 400.0 mg/kg/injection, schedule: Q04DX003 (ip), vehicle: saline with Tween-80
[9] = dose: 100.0 mg/kg/injection, schedule: Q01DX009 (ip), vehicle: saline
[10] = dose: 200.0 mg/kg/injection, schedule: Q01DX009 (ip), vehicle: saline

For CC[C@@]1(O)C(=O)OCc2c1cc1n(c2=O)Cc2cc3cc(O)ccc3nc2-1, the T/C (dose: 0.15 mg/kg/injection, schedule: Q01DX015 (ip), vehicle: saline) was 151 % of control, the T/C (dose: 0.22 mg/kg/injection, schedule: Q01DX015 (ip), vehicle: saline) was 157 % of control and the T/C (dose: 0.34 mg/kg/injection, schedule: Q01DX015 (ip), vehicle: saline) was 165 % of control. For the same molecule, the T/C (dose: 0.51 mg/kg/injection, schedule: Q01DX015 (ip), vehicle: saline) was 233 % of control, the T/C (dose: 0.77 mg/kg/injection, schedule: Q01DX015 (ip), vehicle: saline) was 157 % of control and the T/C (dose: 1.0 mg/kg/injection, schedule: Q01DX009 (ip), vehicle: saline) was 185 % of control. For the same molecule, the T/C (dose: 1.16 mg/kg/injection, schedule: Q01DX015 (ip), vehicle: saline) was 161 % of control, the T/C (dose: 1.75 mg/kg/injection, schedule: Q01DX015 (ip), vehicle: saline) was 177 % of control and the T/C (dose: 2.0 mg/kg/injection, schedule: Q01DX001 (ip), vehicle: saline) was 111 % of control. The T/C (dose: 2.0 mg/kg/injection, schedule: Q01DX009 (ip), vehicle: saline) was 229 % of control, the T/C (dose: 2.0 mg/kg/injection, schedule: Q01DX009 (oral), vehicle: saline) was 105 % of control and 108 % of control and the T/C (dose: 3.0 mg/kg/injection, schedule: Q01DX009 (oral), vehicle: saline) was 114 % of control and 115 % of control. For the same molecule, the T/C (dose: 4.0 mg/kg/injection, schedule: Q01DX001 (ip), vehicle: saline) was 164 % of control, the T/C (dose: 7.0 mg/kg/injection, schedule: Q01DX009 (oral), vehicle: saline) was 101 % of control and 120 % of control and the T/C (dose: 8.0 mg/kg/injection, schedule: Q01DX001 (ip), vehicle: saline) was 242 % of control. For the same molecule, the T/C (dose: 10.0 mg/kg/injection, schedule: Q01DX009 (oral), vehicle: saline) was 121 % of control, the T/C (dose: 15.0 mg/kg/injection, schedule: Q01DX009 (oral), vehicle: saline) was 115 % of control and the T/C (dose: 16.0 mg/kg/injection, schedule: Q01DX001 (ip), vehicle: saline) was 88 % of control. For the same molecule, the T/C (dose: 12.0 micrograms/kg/injection, schedule: Q01DX015 (ip), vehicle: saline) was 113 % of control, the T/C (dose: 19.0 micrograms/kg/injection, schedule: Q01DX015 (ip), vehicle: saline) was 111 % of control and the T/C (dose: 29.0 micrograms/kg/injection, schedule: Q01DX015 (ip), vehicle: saline) was 118 % of control. The T/C (dose: 44.0 micrograms/kg/injection, schedule: Q01DX015 (ip), vehicle: saline) was 120 % of control and the T/C (dose: 100.0 micrograms/kg/injection, schedule: Q01DX015 (ip), vehicle: saline) was 150 % of control.

In the case of C1=Nc2ccccc2/C1=C/C=C/c1ccccc1, the T/C (dose: 100.0 mg/kg/injection, schedule: Q04DX002 (ip), vehicle: gum acacia) is reported as 88 % of control, the T/C (dose: 200.0 mg/kg/injection, schedule: Q04DX002 (ip), vehicle: gum acacia) is reported as 95 % of control and the T/C (dose: 400.0 mg/kg/injection, schedule: Q04DX002 (ip), vehicle: gum acacia) is reported as 95 % of control.

With CC1CCOS(=O)O1 (stereo not drawn) the T/C (dose: 20.0 mg/kg/injection, schedule: Q01DX010 (ip), vehicle: saline) was 96 % of control and 98 % of control, the T/C (dose: 24.0 mg/kg/injection, schedule: Q01DX Z (ip), vehicle: carboxymethylcellulose (CMC)) was 104 % of control and 92 % of control and the T/C (dose: 36.0 mg/kg/injection, schedule: Q01DX Z (ip), vehicle: carboxymethylcellulose (CMC)) was 95 % of control and 109 % of control. For the same molecule, the T/C (dose: 40.0 mg/kg/injection, schedule: Q01DX010 (ip), vehicle: saline) was 95 % of control and 96 % of control, the T/C (dose: 50.0 mg/kg/injection, schedule: Q01DX001 (ip), vehicle: saline) was 98 % of control and the T/C (dose: 54.0 mg/kg/injection, schedule: Q01DX Z (ip), vehicle: carboxymethylcellulose (CMC)) was 101 % of control and 111 % of control. For the same molecule, the T/C (dose: 80.0 mg/kg/injection, schedule: Q01DX010 (ip), vehicle: saline) was 98 % of control and 104 % of control, the T/C (dose: 81.0 mg/kg/injection, schedule: Q01DX Z (ip), vehicle: carboxymethylcellulose (CMC)) was 96 % of control and 104 % of control and the T/C [1] was 98 % of control and 102 % of control. The T/C [2] was 104 % of control.

With CCNC(C)(C)C(S)c1ccc(Cl)s1 (stereo not drawn) the T/C (dose: 50.0 mg/kg/injection, schedule: Q01DX009 (ip), vehicle: saline with Tween-80) was 106 % of control, the T/C [3] was 114 % of control and the T/C [4] was 103 % of control. The T/C [5] was 94 % of control.

In the case of CCCCOCCOP(=O)(OCCOCCCC)OCCOCCCC, the T/C (dose: 100.0 mg/kg/injection, schedule: Q04DX003 (ip), vehicle: Klucel (hydroxypropylcellulose) (HPC)) is reported as 98 % of control, the T/C (dose: 200.0 mg/kg/injection, schedule: Q04DX003 (ip), vehicle: Klucel (hydroxypropylcellulose) (HPC)) is reported as 98 % of control and the T/C (dose: 400.0 mg/kg/injection, schedule: Q04DX003 (ip), vehicle: Klucel (hydroxypropylcellulose) (HPC)) is reported as 101 % of control.

CC(=O)N(c1ccccn1)c1ccccn1 was tested, and the T/C [1] was 106 % of control, the T/C [6] was 97 % of control and the T/C [2] was 104 % of control. The T/C [7] was 105 % of control.

CCOc1ccccc1NC(=O)C(Br)C(Br)C(=O)O (stereo not drawn) was tested, and the T/C [3] was 96 % of control, the T/C [4] was 100 % of control and the T/C (dose: 200.0 mg/kg/injection, schedule: Q01DX009 (ip), vehicle: saline with Tween-80) was 97 % of control. For the same molecule, the T/C [5] was 95 % of control, the T/C (dose: 400.0 mg/kg/injection, schedule: Q01DX009 (ip), vehicle: saline with Tween-80) was 96 % of control and the T/C [8] was 101 % of control.

In the case of NN1Cc2ccc3c4c(ccc(c24)C1)C=C3, the T/C (dose: 15.0 mg/kg/injection, schedule: Q01DX001 (ip), vehicle: carboxymethylcellulose (CMC)) is reported as 108 % of control, the T/C (dose: 30.0 mg/kg/injection, schedule: Q01DX001 (ip), vehicle: carboxymethylcellulose (CMC)) is reported as 97 % of control and the T/C (dose: 60.0 mg/kg/injection, schedule: Q01DX001 (ip), vehicle: carboxymethylcellulose (CMC)) is reported as 101 % of control.

Clc1ccc(CSc2ncnc3nc[nH]c23)cc1Cl was tested, and the T/C [4] was 93 % of control, the T/C [5] was 94 % of control and the T/C [8] was 104 % of control.

In the case of COc1cc(N)c2c(c1O)CN(C)CC2, the T/C (dose: 75.0 mg/kg/injection, schedule: Q01DX001 (ip), vehicle: saline) is reported as 95 % of control, the T/C (dose: 150.0 mg/kg/injection, schedule: Q01DX001 (ip), vehicle: saline) is reported as 100 % of control and the T/C (dose: 300.0 mg/kg/injection, schedule: Q01DX001 (ip), vehicle: saline) is reported as 86 % of control.

COc1cc2c(cc1OC)C(=O)Cc1ccc3c(c1CN(C)CC2)OCO3 was tested, and the T/C (dose: 100.0 mg/kg/injection, schedule: Q01DX009 (ip), vehicle: Klucel (hydroxypropylcellulose) (HPC)) was 95 % of control and the T/C (dose: 200.0 mg/kg/injection, schedule: Q01DX009 (ip), vehicle: Klucel (hydroxypropylcellulose) (HPC)) was 95 % of control.

For O=C1OC(=O)c2c3c(c4c(c21)CCC4)CCC3, the T/C (dose: 50.0 mg/kg/injection, schedule: Q01DX009 (ip), vehicle: saline) was 107 % of control, the T/C [1] was 100 % of control and the T/C [9] was 93 % of control. The T/C [6] was 101 % of control, the T/C [2] was 91 % of control and the T/C [10] was 94 % of control. For the same molecule, the T/C [7] was 96 % of control and the T/C (dose: 400.0 mg/kg/injection, schedule: Q01DX001 (ip), vehicle: saline) was 97 % of control.

COc1cc(OC)c(/C=C/c2ccc3ccccc3[n+]2C)c(OC)c1 was tested, and the T/C (dose: 0.5 mg/kg/injection, schedule: Q01DX009 (oral), vehicle: carboxymethylcellulose (CMC)) was 104 % of control, the T/C (dose: 1.0 mg/kg/injection, schedule: Q01DX009 (oral), vehicle: carboxymethylcellulose (CMC)) was 103 % of control and the T/C (dose: 2.0 mg/kg/injection, schedule: Q01DX009 (oral), vehicle: carboxymethylcellulose (CMC)) was 111 % of control. For the same molecule, the T/C (dose: 4.0 mg/kg/injection, schedule: Q01DX009 (oral), vehicle: carboxymethylcellulose (CMC)) was 103 % of control, the T/C (dose: 8.0 mg/kg/injection, schedule: Q01DX009 (oral), vehicle: carboxymethylcellulose (CMC)) was 103 % of control and the T/C (dose: 31.3 micrograms/kg/injection, schedule: Q04DX003 (ip), vehicle: saline) was 100 % of control. For the same molecule, the T/C (dose: 62.5 micrograms/kg/injection, schedule: Q04DX003 (ip), vehicle: saline) was 101 % of control and the T/C (dose: 125.0 micrograms/kg/injection, schedule: Q04DX003 (ip), vehicle: saline) was 95 % of control.

With CCC(=O)OCCOc1ccc(C(C)(C)C)cc1 the T/C (dose: 50.0 mg/kg/injection, schedule: Q04DX002 (ip), vehicle: saline) was 98 % of control, the T/C [9] was 98 % of control and the T/C (dose: 100.0 mg/kg/injection, schedule: Q04DX002 (ip), vehicle: saline) was 94 % of control. For the same molecule, the T/C [10] was 103 % of control and the T/C (dose: 200.0 mg/kg/injection, schedule: Q04DX002 (ip), vehicle: saline) was 91 % of control.

With CCCCCCC(/C=N\NC(=O)c1cccc2ccccc12)=C\c1ccccc1 the T/C [2] was 97 % of control.

With COC(=O)C1CCCN(C)C1c1c[nH]c2ccccc12 (stereo not drawn) the T/C (dose: 75.0 mg/kg/injection, schedule: Q01DX001 (ip), vehicle: other) was 90 % of control and the T/C (dose: 150.0 mg/kg/injection, schedule: Q01DX001 (ip), vehicle: other) was 106 % of control.
